Laboratory results reported in patent US20240271133A1, “KRAB-Containing Zinc Finger Protein And Cancer” (ECOLE POLYTECHNIQUE FEDERALE DE LAUSANNE (EPFL), priority 2021, published 2024).

Test system: U2932 KD cells
Procedure: pLKO.puro shRNA vectors were used for ZNF586, ZNF587 and ZNF417 knock downs. […] The short hairpin RNAs (shRNAs) targeting the sequence ZNF586 (TRCN0000015373 and TRCN0000015376) were obtained from Sigma-Aldrich. Lentiviral vectors production protocols are detailed at http://tronolab.epfl.ch. The cell proliferation after LV transduction was determined using the 3-[4,5-dimethylthiazol-2-yl]-2,5-diphenyltetrazolium bromide (MTT) assay. The cells were transduced at a multiplicity of infection (MOI) of 20 in every experiment.

SMILES | cytotoxic interaction of drug with ZNF587/417 depletion
Nc1ncn([C@H]2C[C@H](O)[C@@H](CO)O2)c(=O)n1 [decitabine] | cytotoxic synergism
C=CC(=O)N1CCC[C@@H](n2nc(-c3ccc(Oc4ccccc4)cc3)c3c(N)ncnc32)C1 [ibrutinib] | cytotoxic synergism
